According to US10682371B2, “Small molecule conjugates specifically activated in tumor microenvironment for targeting and use thereof” (priority 2014, dated 2020):

How the values were obtained:
[1] = system: HEK293 cells; assay type: cell-based
Method: Toxicity detection method: a standard universal test program was used to perform the in vitro cytotoxicity test. 2500 HEK293 cells were cultured in a 96-well plate, and allowed to grow overnight. Cytotoxic compounds and their corresponding conjugated compounds were added into each well in different concentrations, cultivated with the cells at 37° C. for 72 hours, and then treated with MTT reagents. OD changes were read. The approximate multiples of the toxicity change were obtained by comparing the IC50 of the modified compounds to their corresponding cytotoxic compounds.

[2] = system: Human breast cancer MDA-MB231 cells; assay type: in vivo, nude mice
Method: (§1) 1) Human breast cancer MDA-MB231 cells were purchased from American type culture collection (ATCC) and identified according the specification provided by ATCC. Cells were cultivated in Dulbecco's minimum essential medium (DMEM culture medium) containing 10% fetal bovine serum at 37° C. and 5% CO2. The cells were passaged for every three days and cells within the 15th passage were used.
2) Production of tumor. 5×10^6 MDA-MB231 cells were subcutaneously injected to the back of the nude mice. Mice were randomly grouped after the tumor reached at least 100 mm^3. Then treatment began and the day on which the treatment began was day 1.
3) Course of treatment. […] The drugs were administered once weekly for four weeks.
When R1 is 2-(2-Methoxyethoxy)Acetyl, and R3 is Ala, activation study and efficacy study were carried out by using compounds having different cleavable linker. The study methods are identical to those in Examples 10, 11 and 12. The in vitro activation efficiency was tested by asparagine endopeptidase and the tumor inhibition rate was tested by using human breast cancer MDA-MB231 model. […]

[3] = system: Human chronic leukemia K562; experiment: Multiple tumor models in nude mice: K562; assay type: in vivo
Method: as §1, with “Corresponding tumor” for “Human breast cancer MDA-MB231”, “DMEM” for “Dulbecco's minimum essential medium (DMEM”, “solution” for “medium)”
(§2) 2) Production of tumor. 5×10^6 corresponding cells were subcutaneously injected to the back of the nude mice. Mice were randomly grouped after the tumor reached at least 100 mm^3. Then treatment began and the day on which the treatment began was day 1.
(§3) 3) Course of treatment. […] The control group was administered by physiological saline. Animals were administered once weekly for three weeks.
(§4) 3) Course of treatment. According to the clinical application of A1, A1 was administered in a dose of ⅙ MTD, i.v., 17.6 μmol/kg. The control group was administered by physiological saline. Animals were administered once weekly for three weeks.
(§5) 3) Course of treatment. According to the clinical application of B1, B1 was administered in a dose of ⅙ MTD, i.v., 17.6 μmol/kg. The control group was administered by physiological saline. Animals were administered once weekly for three weeks.
as §3, §3

[4] = system: Human liver cancer Hepg2; experiment: Multiple tumor models in nude mice: Hepg2; assay type: in vivo
Method: as §1, with “Corresponding tumor” for “Human breast cancer MDA-MB231”, “DMEM” for “Dulbecco's minimum essential medium (DMEM”, “solution” for “medium)”
as §2, §3, §4, §5, §3, §3

[5] = system: Human non-small cell lung cancer A549; experiment: Multiple tumor models in nude mice: A549; assay type: in vivo
Method: as §1, with “Corresponding tumor” for “Human breast cancer MDA-MB231”, “DMEM” for “Dulbecco's minimum essential medium (DMEM”, “solution” for “medium)”
as §2, §3, §4, §5, §3, §3

[6] = system: Human renal cancer OS-RC-2; experiment: Multiple tumor models in nude mice: OS-RC-2; assay type: in vivo
Method: as §1, with “Corresponding tumor” for “Human breast cancer MDA-MB231”, “DMEM” for “Dulbecco's minimum essential medium (DMEM”, “solution” for “medium)”
as §2, §3, §4, §5, §3, §3

[7] = system: Human breast cancer MDA-MB435; experiment: Multiple tumor models in nude mice: MDA-MB435; assay type: in vivo
Method: as §1, with “Corresponding tumor” for “Human breast cancer MDA-MB231”, “DMEM” for “Dulbecco's minimum essential medium (DMEM”, “solution” for “medium)”
as §2, §3, §4, §5, §3, §3

[8] = system: Human pancreatic cancer Panc-1; experiment: Multiple tumor models in nude mice: Panc-1; assay type: in vivo
Method: as §1, with “Corresponding tumor” for “Human breast cancer MDA-MB231”, “DMEM” for “Dulbecco's minimum essential medium (DMEM”, “solution” for “medium)”
as §2, §3, §4, §5, §3, §3

[9] = system: Human ovarian cancer SK-OV-3; experiment: Multiple tumor models in nude mice: SK-OV-3; assay type: in vivo
Method: as §1, with “Corresponding tumor” for “Human breast cancer MDA-MB231”, “DMEM” for “Dulbecco's minimum essential medium (DMEM”, “solution” for “medium)”
as §2, §3, §4, §5, §3, §3

[10] = system: Human colon cancer HT-29; experiment: Multiple tumor models in nude mice: HT-29; assay type: in vivo
Method: as §1, with “Corresponding tumor” for “Human breast cancer MDA-MB231”, “DMEM” for “Dulbecco's minimum essential medium (DMEM”, “solution” for “medium)”
as §2, §3, §4, §5, §3, §3

[11] = Multiple tumor models in nude mice: HT1080; assay type: in vivo; details: Human colon caner HT1080
Method: as §1, with “Corresponding tumor” for “Human breast cancer MDA-MB231”, “DMEM” for “Dulbecco's minimum essential medium (DMEM”, “solution” for “medium)”
as §2, §3, §4, §5, §3, §3

[12] = Maximum tolerated dose (MTD) / acute toxicity by single intravenous injection; details: female, BALB/C, mouse, in vivo, iv
[13] = system: Panc-1 cells; experiment: Tumor treatment in nude mice, Panc-1 model (Example 60); assay type: in vivo
Method: as §1, with “Panc-1” for “Human breast cancer MDA-MB231”, “DMEM” for “Dulbecco's minimum essential medium (DMEM”, “solution” for “medium)”
2) Production of tumor. 5×10^6Panc-1 cells were subcutaneously injected to the back of the nude mice. Mice were randomly grouped after the tumor reached at least 100 mm^3. Then treatment began and the day on which the treatment began was day 1.
[…]. The control group was administered by physiological saline. Drugs were administered once weekly for four weeks.

[14] = system: scar and choroidal neovascularization (CNV); experiment: Inhibition of scar and choroidal neovascularization (CNV) by eye drops after laser photocoagulation; assay type: in vivo, C57 mice
Method: Animal: C57 mice of 16 weeks old, all female and 8 animals in each group.
Production and treatment of scar. […] Two weeks later, eye tissues were taken from 4 animals of each group for immunohistochemical (HE) staining. For another 4 animals, they were subjected to fixed irradiation through photocoagulation by 50 mW laser and then to treatment. 48 hours later, their eye tissues were taken, homogenated, filtered to isolate individual cells in the scar and choroidal neovascularization (CNV) tissues. The cells were washed by buffer twice and stained by biotin-conjugated anti-F4/80 (biotin-labeled precursor cell antigen from macrophage) and FITC-conjugated anti-CD45 (isothiocyanate fluorescein labeled leucocyte common antigen) at ambient temperature for 1 hour. Then the cells were washed by PBS containing 1% fetal bovine serum twice and then analyzed for the ratio of the macrophage precursor antigen positive cells in the leucocyte common antigen (CD45) positive cells by flow cytometry.

[15] = MDA-MB231, nude mice, IV 13.2 μmol/kg once weekly for four weeks, Day 10
[16] = S1′ i.v. 17.6 μmol/kg once weekly for three weeks
[17] = Table 29, i.v. 17.6 μmol/kg once weekly for three weeks
[18] = 15 mg/kg once weekly for three weeks, Day 26
[19] = Day 10, Panc-1 in nude mice, IV once weekly for four weeks, E1-E4 15 mg/kg, mitomycin 2 mg/kg
[20] = Day 24, Panc-1 in nude mice, IV once weekly for four weeks, E1-E4 15 mg/kg, mitomycin 2 mg/kg

4-N—(N—(N—(N-(6-maleimido caproyl)-L-alanyl)-L-alanyl)-L-asparaginyl)-amino benzyl alcohol-MMAE-carbamate [Compound S6]
Cytoxicity reduced (Multiple) ([1]; HEK293, 72 hours, MTT, IC50 of modified compound compared to its corresponding cytotoxic compound, approximate multiples): 35 Multiple
Cytoxicity reduced (Multiples) ([1]; different cleavable linkers of MMAE and Doxorubicin): 35 Multiples
Inhibitory rate on tumor (%) Day 10 [2, 15]: 23%
Size of tumor (mm^3) Day 10 [2, 15]: 235.5 ± 56.3 mm^3
Inhibitory rate on tumor (%) Day 24 ([2]; MDA-MB231, nude mice, IV 13.2 μmol/kg once weekly for four weeks, Day 24): 45.3%
Effect on tumor growth, in words ([2]; compared to control, camptothecin, capecitabine and daunorubicin groups): less efficacy
tumor inhibition rate (%) ([2]; human breast cancer MDA-MB231 model, different cleavable linkers): 45.4%

COCCOCC(=O)N[C@H](C)C(=O)N[C@H](C)C(=O)N[C@H](CC(N)=O)C(=O)Nc1ccc(COC(=O)OC(C(=O)OC2C[C@@]3(O)C(OC(=O)c4ccccc4)[C@@H]4C5(OC(C)=O)COC5C[C@H](O)[C@@]4(C)C(=O)[C@H](OC(C)=O)C(=C2C)C3(C)C)[C@@H](NC(=O)c2ccccc2)c2ccccc2)cc1 (stereo in doubt) [S1′, 2-(2-methoxyethoxy) acetylamino-L-Ala-L-Ala-L-Asn-p-amino-benzyl-paclitaxel]
inhibitory rate on tumor (Day 26) [3, 16]: 77.9%
inhibitory rate on tumor (Day 26) [4, 16]: 84.3%
inhibitory rate on tumor (Day 26) [5, 16]: 94.6%
inhibitory rate on tumor (Day 26) [6, 16]: 85.7%
inhibitory rate on tumor (Day 26) [7, 16]: 90.7%
inhibitory rate on tumor (Day 26) [8, 16]: 88.59%
inhibitory rate on tumor (Day 26) [9, 16]: 85.6%
inhibitory rate on tumor (Day 26) [10, 16]: 89.7%
inhibitory rate on tumor (Day 26) [11, 16]: 94.3%

COCCOCC(=O)NCCCC[C@H](NC(=O)COCCOC)C(=O)N[C@H](C)C(=O)N[C@H](C)C(=O)N[C@H](CC(N)=O)C(=O)Nc1ccc(COC(=O)OC(C(=O)OC2C[C@@]3(O)[C@@H](OC(=O)c4ccccc4)[C@H]4[C@](C)(C(=O)[C@H](OC(C)=O)C(=C2C)C3(C)C)[C@@H](O)CC2OC[C@]24OC(C)=O)[C@@H](NC(=O)c2ccccc2)c2ccccc2)cc1 (stereo partly drawn) [Compound A1]
inhibitory rate on tumor (Day 26) [3, 17]: 76.9%
inhibitory rate on tumor (Day 26) [4, 17]: 85.4%
inhibitory rate on tumor (Day 26) [5, 17]: 95.3%
inhibitory rate on tumor (Day 26) [6, 17]: 86.6%
inhibitory rate on tumor (Day 26) [7, 17]: 91.2%
inhibitory rate on tumor (Day 26) [8, 17]: 89.2%
inhibitory rate on tumor (Day 26) [9, 17]: 84.4%
inhibitory rate on tumor (Day 26) [10, 17]: 87.5%
inhibitory rate on tumor (Day 26) [11, 17]: 95.6%

COCCOCC(=O)N[C@H](C)C(=O)N[C@H](C)C(=O)N[C@H](CC(N)=O)C(=O)Nc1ccc(COC(=O)N2[C@@H]3CN4C5=C(C(=O)C(N)=C(C)C5=O)[C@H](COC(N)=O)[C@]4(OC)[C@@H]32)cc1 [Compound E1, 2-(2-methoxyethoxy) acetyl-L-Ala-L-Ala-L-Asn-4-amino benzyl mitomycin]
inhibitory rate on tumor (Day 26) [3, 18]: 77.3%
inhibitory rate on tumor (Day 26) [4, 18]: 85.7%
inhibitory rate on tumor (Day 26) [5, 18]: 95.3%
inhibitory rate on tumor (Day 26) [6, 18]: 81.3%
inhibitory rate on tumor (Day 26) [7, 18]: 86.3%
MTD at 17 days [12]: ~90 mg/kg
Size of tumor (mm^3) Day 10 [13, 19]: 76.42 ± 14.96 mm^3
inhibitory rate on tumor Day 10 [13, 19]: 35.7%
Size of tumor (mm^3) Day 24 [13, 20]: 84.62 ± 45.94 mm^3
inhibitory rate on tumor Day 24 [13, 20]: 66.1%
Inhibition on tumor growth, in words ([13]; Panc-1, compared with mitomycin group and control group): greatly improved
inhibitory rate on tumor (Day 26) [8, 18]: 86.5%
inhibitory rate on tumor (Day 26) [9, 18]: 84.5%
inhibitory rate on tumor (Day 26) [10, 18]: 86.7%
inhibitory rate on tumor (Day 26) [11, 18]: 95.4%
Maximal scar radius observed by pathological staining (pixel) ([14]; 150 mW laser photocoagulation, eye drops daily, two weeks, C57 mice): 332 ± 124 pixel
Treatment effect on scar radius and inhibition of macrophage, in words ([14]; eye drops, compared to the control group and the mitomycin group): greatly improved treatment effect on scar radius and inhibition of macrophage
